Target: ROCK2 (Homo sapiens, UniProt O75116)
Assay: ROCK2 assay (Caliper LABCHIP peptide phosphorylation, kinase inhibition)
Assay type: biochemical
Conditions: 5 μM ATP, 1.5 μM peptide substrate
Protocol: The effectiveness of compounds of the present invention as ROCK inhibitors can be determined in a 30 μL assay containing 20 mM HEPES, pH 7.5, 20 mM MgCl2, 0.015% Brij-35, 4 mM DTT, 5 μM ATP and 1.5 μM peptide substrate (FITC-AHA-AKRRRLSSLRA-OH) (SEQ ID NO. 1). Compounds were dissolved in DMSO so that the final concentration of DMSO was <2%, and the reaction was initiated with Rho kinase variants. After incubation, the reaction was terminated by the addition of EDTA and the phosphorylated and non-phosphorylated peptides separated using a LABCHIP® 3000 Reader (Caliper Life Sciences). […] Compounds were tested in dose-response format, and the inhibition of kinase activity was calculated at each concentration of compound. The inhibition data were fit using a curve-fitting program to determine the IC50; i.e., the concentration of compound required to inhibit 50% of kinase activity.
Representative Examples were tested in the ROCK2 assay described above and found having ROCK2 inhibitory activity. The ranges of the ROCK2 IC50 values are as follows: ROCK2 IC50: ++++ (<10 nM) +++ (10-100 nM) ++ (100-500 nM) + (500-2000 nM)

Chain of ROCK2 (O75116 whole entry, species assumed): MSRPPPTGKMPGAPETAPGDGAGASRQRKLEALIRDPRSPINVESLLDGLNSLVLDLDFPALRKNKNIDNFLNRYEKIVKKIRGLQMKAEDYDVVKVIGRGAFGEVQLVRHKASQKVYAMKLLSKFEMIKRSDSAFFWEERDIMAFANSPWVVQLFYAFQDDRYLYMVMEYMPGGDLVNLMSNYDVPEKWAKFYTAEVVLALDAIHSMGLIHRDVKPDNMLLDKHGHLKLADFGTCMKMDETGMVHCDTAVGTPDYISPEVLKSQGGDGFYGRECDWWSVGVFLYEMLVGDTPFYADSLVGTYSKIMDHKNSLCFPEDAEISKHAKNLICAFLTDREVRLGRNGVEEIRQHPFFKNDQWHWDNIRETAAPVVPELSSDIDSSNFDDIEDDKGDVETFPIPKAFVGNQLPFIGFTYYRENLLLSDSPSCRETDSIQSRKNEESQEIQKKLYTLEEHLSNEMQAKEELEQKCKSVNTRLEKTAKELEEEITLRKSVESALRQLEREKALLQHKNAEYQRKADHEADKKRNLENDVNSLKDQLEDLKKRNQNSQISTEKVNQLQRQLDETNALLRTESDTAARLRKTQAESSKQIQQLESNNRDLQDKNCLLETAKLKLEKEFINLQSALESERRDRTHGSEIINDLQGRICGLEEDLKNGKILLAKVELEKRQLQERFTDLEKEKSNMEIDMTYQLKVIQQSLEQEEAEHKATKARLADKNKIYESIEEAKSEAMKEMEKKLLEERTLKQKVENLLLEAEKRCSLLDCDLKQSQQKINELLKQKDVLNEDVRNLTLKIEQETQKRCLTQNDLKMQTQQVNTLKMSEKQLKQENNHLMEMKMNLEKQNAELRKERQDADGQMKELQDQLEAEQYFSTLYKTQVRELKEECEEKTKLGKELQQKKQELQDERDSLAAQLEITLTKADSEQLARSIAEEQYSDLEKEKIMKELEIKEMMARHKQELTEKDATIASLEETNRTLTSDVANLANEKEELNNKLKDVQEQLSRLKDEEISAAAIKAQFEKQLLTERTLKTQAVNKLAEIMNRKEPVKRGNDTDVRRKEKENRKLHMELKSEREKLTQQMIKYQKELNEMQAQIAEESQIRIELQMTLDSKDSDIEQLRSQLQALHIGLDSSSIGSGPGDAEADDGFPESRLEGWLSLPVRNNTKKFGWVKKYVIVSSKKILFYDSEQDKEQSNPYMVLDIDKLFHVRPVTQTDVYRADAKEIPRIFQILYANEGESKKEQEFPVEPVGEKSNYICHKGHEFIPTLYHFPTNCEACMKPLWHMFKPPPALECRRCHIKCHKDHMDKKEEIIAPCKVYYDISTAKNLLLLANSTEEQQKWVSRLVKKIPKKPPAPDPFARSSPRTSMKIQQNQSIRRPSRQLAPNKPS

Row | Compound | IC50
1 | COc1cc(F)cc(OC2CCN(c3ccc(-c4n[nH]c(=O)c5ccccc45)cc3)C2=O)c1 (centres unmarked) [Example 89, 4-{4-[3-(3-fluoro-5-methoxyphenoxy)-2-oxopyrrolidin-1-yl]phenyl}-1,2-dihydrophthalazin-1-one] | 0.01 to 0.1 µM
2 | O=C1C(NC2CCCC2)CCN1c1ccc(-c2n[nH]c(=O)c3ccccc23)cc1 (centres unmarked) [Example 28, 4-{4-[3-(cyclopentylamino)-2-oxopyrrolidin-1-yl]phenyl}-1,2-dihydrophthalazin-1-one] | 0.5 to 2 µM
3 | O=C1N(c2ccc(-c3n[nH]c(=O)c4ccccc34)cc2)CCN1c1ccccn1 [Example 12, 4-{4-[2-oxo-3-(pyridin-2-yl)imidazolidin-1-yl]phenyl}-1,2-dihydrophthalazin-1-one] | 0.01 to 0.1 µM
4 | O=C1C(Oc2cccc(OC(F)(F)F)c2)CCN1c1ccc(-c2n[nH]c(=O)c3ccccc23)cc1 (single isomer, unassigned) [Example 84, 4-(4-{2-oxo-3-[3-(trifluoromethoxy)phenoxy]pyrrolidin-1-yl}phenyl)-1,2-dihydrophthalazin-1-one] | < 0.01 µM
5 | O=C1C(Nc2ccc3c(c2)OC(F)(F)O3)CCN1c1ccc(-c2n[nH]c(=O)c3ccccc23)cc1 (centres unmarked) [Example 51, 4-(4-{3-[(2,2-difluoro-2H-1,3-benzodioxol-5-yl)amino]-2-oxopyrrolidin-1-yl}phenyl)-1,2-dihydrophthalazin-1-one] | 0.01 to 0.1 µM
6 | O=C1C(Nc2ccc3c(c2)OCCCO3)CCN1c1ccc(-c2n[nH]c(=O)c3ccccc23)cc1 (single isomer, unassigned) [Example 77, 4-(4-{3-[(3,4-dihydro-2H-1,5-benzodioxepin-7-yl)amino]-2-oxopyrrolidin-1-yl}phenyl)-1,2-dihydrophthalazin-1-one] | 0.01 to 0.1 µM
7 | O=C(C1CCN(c2ccc(-c3n[nH]c(=O)c4ccccc34)cc2)C1=O)N1Cc2ccccc2C1 (centres unmarked) [Example 5, 4{-4-[3-(2,3-dihydro-1H-isoindole-2-carbonyl)-2-oxopyrrolidin-1-yl]phenyl}-1,2-dihydrophthalazin-1-one] | 0.5 to 2 µM
8 | Cc1nc2ccc(NC3CCN(c4ccc(-c5n[nH]c(=O)c6ccccc56)cc4)C3=O)cc2s1 (racemic) [Example 66, 4-(4-{3-[(2-methyl-1,3-benzothiazol-6-yl)amino]-2-oxopyrrolidin-1-yl}phenyl)-1,2-dihydrophthalazin-1-one] | < 0.01 µM
9 | O=C1C(Nc2ccc3c(c2)CCNC3)CCN1c1ccc(-c2n[nH]c(=O)c3ccccc23)cc1 (centres unmarked) [Example 70, 4-(4-{2-oxo-3-[(1,2,3,4-tetrahydroisoquinolin-6-yl)amino]pyrrolidin-1-yl}phenyl)-1,2-dihydrophthalazin-1-one] | 0.1 to 0.5 µM
10 | O=C1C(Nc2cccc(OC(F)F)c2)CCN1c1ccc(-c2c[nH]c(=O)c3ccccc23)cc1 (single isomer, unassigned) [Example 78, 4-[4-(3-{[3-(difluoromethoxy)phenyl]amino}-2-oxopyrrolidin-1-yl)phenyl]-1,2-dihydroisoquinolin-1-one] | 0.01 to 0.1 µM
11 | O=C1COc2cc(NC3CCN(c4ccc(-c5n[nH]c(=O)c6ccccc56)cc4)C3=O)ccc2N1 (single isomer, unassigned) [Example 83, 7-({2-oxo-1-[4-(4-oxo-3,4-dihydrophthalazin-1-yl)phenyl]pyrrolidin-3-yl}amino)-3,4-dihydro-2H-1,4-benzoxazin-3-one] | 0.01 to 0.1 µM
12 | COc1ccccc1NC1CCN(c2ccc(-c3n[nH]c(=O)c4ccccc34)cc2)C1=O (centres unmarked) [Example 61, 4-(4-{3-[(2-methoxyphenyl)amino]-2-oxopyrrolidin-1-yl}phenyl)-1,2-dihydrophthalazin-1-one] | 0.01 to 0.1 µM
13 | Cc1[nH]nc(C2CC2)c1NC1CCN(c2ccc(-c3n[nH]c(=O)c4ccccc34)cc2)C1=O (centres unmarked) [Example 36, 4-(4-{3-[(3-cyclopropyl-5-methyl-1H-pyrazol-4-yl)amino]-2-oxopyrrolidin-1-yl}phenyl)-1,2-dihydrophthalazin-1-one] | 0.01 to 0.1 µM
14 | O=C1C(Nc2cccc(OC(F)F)c2)CCN1c1ccc(-c2n[nH]c(=O)c3ccccc23)cc1 (single isomer, unassigned) [Example 56, 4-[4-(3-{[3-(difluoromethoxy)phenyl]amino}-2-oxopyrrolidin-1-yl)phenyl]-1,2-dihydrophthalazin-1-one] | < 0.01 µM
15 | CCOc1cccc(NC2CCN(c3ccc(-c4n[nH]c(=O)c5ccccc45)cc3)C2=O)c1 (centres unmarked) [Example 43, 4-(4-{3-[(3-ethoxyphenyl)amino]-2-oxopyrrolidin-1-yl}phenyl)-1,2-dihydrophthalazin-1-one] | 0.01 to 0.1 µM
16 | CC(C)c1cc(NC2CCN(c3ccc(-c4n[nH]c(=O)c5ccccc45)cc3)C2=O)n(C)n1 (centres unmarked) [Example 71, 4-[4-(3-{[1-methyl-3-(propan-2-yl)-1H-pyrazol-5-yl]amino}-2-oxopyrrolidin-1-yl)phenyl]-1,2-dihydrophthalazin-1-one] | 0.01 to 0.1 µM

Row | Compound | IC50
17 | O=C1N(c2ccccc2)CCN1c1ccc(-c2n[nH]c(=O)c3ccccc23)cc1 [Example 2, 4-[4-(2-oxo-3-phenylimidazolidin-1-yl)phenyl]-1,2-dihydrophthalazin-1-one] | < 0.01 µM
18 | O=C1C(Nc2cccc(OC(F)F)c2)CCN1c1ccc(-c2n[nH]c(=O)c3ccccc23)cc1 (racemic) [Example 30, 4-[4-(3-{[3-(difluoromethoxy)phenyl]amino}-2-oxopyrrolidin-1-yl)phenyl]-1,2-dihydrophthalazin-1-one] | < 0.01 µM
19 | O=c1[nH]nc(-c2ccc(-n3ncn(Cc4cccc(OC(F)F)c4)c3=O)cc2)c2ccccc12 [Example 63, 4-[4-(4-{[3-(difluoromethoxy)phenyl]methyl}-5-oxo-4,5-dihydro-1H-1,2,4-triazol-1-yl)phenyl]-1,2-dihydrophthalazin-1-one] | 0.1 to 0.5 µM
20 | N#Cc1cnc(NC2CCN(c3ccc(-c4n[nH]c(=O)c5ccccc45)cc3)C2=O)s1 (centres unmarked) [Example 59, 2-({2-oxo-1-[4-(4-oxo-3,4-dihydrophthalazin-1-yl)phenyl]pyrrolidin-3-yl}amino)-1,3-thiazole-5-carbonitrile] | 0.1 to 0.5 µM
21 | O=c1[nH]nc(-c2ccc(-n3ncn(Cc4ccccc4)c3=O)cc2)c2ccccc12 [Example 41, 4-[4-(4-benzyl-5-oxo-4,5-dihydro-1H-1,2,4-triazol-1-yl)phenyl]-1,2-dihydrophthalazin-1-one] | 0.1 to 0.5 µM
22 | O=C1COc2cc(NC3CCN(c4ccc(-c5n[nH]c(=O)c6ccccc56)cc4)C3=O)ccc2N1 (racemic) [Example 62, 7-({2-oxo-1-[4-(4-oxo-3,4-dihydrophthalazin-1-yl)phenyl]pyrrolidin-3-yl}amino)-3,4-dihydro-2H-1,4-benzoxazin-3-one] | < 0.01 µM
23 | O=C(Nc1ccccc1)C1CCN(c2ccc(-c3n[nH]c(=O)c4ccccc34)cc2)C1=O (centres unmarked) [Example 6, 2-oxo-1-[4-(4-oxo-3,4-dihydrophthalazin-1-yl)phenyl]-N-phenylpyrrolidine-3-carboxamide] | 0.1 to 0.5 µM
24 | COc1cccc(NC2CCN(c3ccc(-c4n[nH]c(=O)c5ccccc45)cc3)C2=O)c1 (centres unmarked) [Example 26, 4-(4-{3-[(3-methoxyphenyl)amino]-2-oxopyrrolidin-1-yl}phenyl)-1,2-dihydrophthalazin-1-one] | 0.01 to 0.1 µM
25 | CC(c1ccccc1)n1cnn(-c2ccc(-c3n[nH]c(=O)c4ccccc34)cc2)c1=O (centres unmarked) [Example 54, 4-{4-[5-oxo-4-(1-phenylethyl)-4,5-dihydro-1H-1,2,4-triazol-1-yl]phenyl}-1,2-dihydrophthalazin-1-one] | 0.5 to 2 µM
26 | CN1CCc2cc(NC3CCN(c4ccc(-c5n[nH]c(=O)c6ccccc56)cc4)C3=O)ccc2C1 (centres unmarked) [Example 75, 4-(4-{3-[(2-methyl-1,2,3,4-tetrahydroisoquinolin-6-yl)amino]-2-oxopyrrolidin-1-yl}phenyl)-1,2-dihydrophthalazin-1-one] | 0.5 to 2 µM
27 | O=C1C(Nc2cccc(OC(F)F)c2)CCN1c1ccc(-c2c[nH]c(=O)c3ccccc23)cc1 (racemic) [Example 58, 4-[4-(3-{[3-(difluoromethoxy)phenyl]amino}-2-oxopyrrolidin-1-yl)phenyl]-1,2-dihydroisoquinolin-1-one] | < 0.01 µM
28 | CCc1ccccc1NC1CCN(c2ccc(-c3n[nH]c(=O)c4ccccc34)cc2)C1=O (centres unmarked) [Example 31, 4-(4-{3-[(2-ethylphenyl)amino]-2-oxopyrrolidin-1-yl}phenyl)-1,2-dihydrophthalazin-1-one] | 0.01 to 0.1 µM
29 | COc1c(F)ccc(NC2CCN(c3ccc(-c4n[nH]c(=O)c5ccccc45)cc3)C2=O)c1F (centres unmarked) [Example 40, 4-(4-{3-[(2,4-difluoro-3-methoxyphenyl)amino]-2-oxopyrrolidin-1-yl}phenyl)-1,2-dihydrophthalazin-1-one] | 0.01 to 0.1 µM
30 | COc1cccc(Cn2c(C)nn(-c3ccc(-c4c[nH]c(=O)c5ccsc45)cc3)c2=O)c1 [Example 72, 4-[(3-methoxyphenyl)methyl]-3-methyl-1-(4-{4-oxo-3aH,4H,5H,7aH-thieno[3,2-c]pyridin-7-yl}phenyl)-4,5-dihydro-1H-1,2,4-triazol-5-one] | 0.5 to 2 µM
31 | COc1cccc(Cn2cnn(-c3ccc(-c4n[nH]c(=O)c5ccccc45)cc3)c2=O)c1 [Example 46, 4-(4-{4-[(3-methoxyphenyl)methyl]-5-oxo-4,5-dihydro-1H-1,2,4-triazol-1-yl}phenyl)-1,2-dihydrophthalazin-1-one] | 0.1 to 0.5 µM
32 | O=C1C(N2CCOCC2)CCN1c1ccc(-c2n[nH]c(=O)c3ccccc23)cc1 (centres unmarked) [Example 24, 4-{4-[3-(morpholin-4-yl)-2-oxopyrrolidin-1-yl]phenyl}-1,2-dihydrophthalazin-1-one] | 0.5 to 2 µM

Reference: patent publication US10730858B2, “Lactam, cyclic urea and carbamate, and triazolone derivatives as potent and selective rock inhibitors” (BRISTOL-MYERS SQUIBB COMPANY, priority 2016, dated 2020)
